Experiments:
Lepr^db/db mice = assay: Acute treatment: blood glucose in Lepr^db/db mice; type: in vivo, mouse
Procedure: After overnight fasting, 8-10-week-old Lepr^db/db mice were intraperitoneally injected with physiological saline ([…]) containing 0.2% DMSO, or Compound #43 (0.0054, 0.054, 0.54, or 5.4 mg Compound #43 (the compound stock was diluted in sterile physiological saline) per kilogram of body weight. Following the injection of saline or compound, mice were returned to their cages with free access to water but not chow for 1, 2, 3, 5 and 8 hr. At each time point after injection, a small drop of blood was collected from the tail of each mouse for glucose assay.
Additional 6-week old Lepr^db/db mice under non-fasting conditions were intraperitoneally injected with physiological saline ([…]) containing 0.2% DMSO, or a single dose of Compound #43 (5.4 mg compound/kg body weight). After injection, animals were returned back to their cages with free access to water and chow. After 24 hr, a small drop of blood from the mouse tail was collected for glucose assay.
After treatment with physiological saline or compounds or after the injection of a bolus of glucose, a small drop of blood from each mouse was collected by snipping the mouse tail tip. Blood glucose levels were determined using a Glucometer with a maximum capability for glucose measurement of 600 mg/dL.

PDK1/AKT/FOXO1 = assay: Western blot of PDK1/AKT/FOXO1 in serum-starved HepG2 cells; type: cell-based, human
Procedure: HepG2 cells were seeded on 6-well plates (7×10^5 cells/well) and cultured in 10% FBS EMEM media for 30 hr. Then these cells were washed twice with PBS to remove residual sera, and serum-starved in plain EMEM media overnight. […]
(§1) After the above described treatments, cultured HepG2 and AML-12 cells were rinsed twice with ice-cold PBS and lysed in ice-cold RIPA buffer containing complete proteinase and phosphatase inhibitors (Thermo-Fisher Scientific, Waltham, Mass.) on ice for 30 min. Cell lysates were collected using a cell scraper and transfer pipette, and then centrifuged at 12000×g for 30 min at 4° C. to remove the DNA pellet and obtain the protein extract. Protein levels in the supernatant of these cell lysates were determined using the Pierce Micro-BCA protein assay kit (Thermo Scientific-Piece Biotechnology, Rockford, Ill.) according to the manufacturer's protocol.
One hundred micrograms of liver tissue proteins or five micrograms of total proteins from control- and compound(s)-treated HepG2 or AML-12 cells were subjected to SDS-PAGE gel separation and then transferred to PVDF membranes, as described previously (Reddy et al. 2008 Science). Membranes were blocked in a phosphate-buffered saline (PBS) containing 5% (w/v) of bovine serum albumin (Sigma, St. Louis, Mo.) and incubated with specific primary antibodies followed by the incubation with HRP-conjugated anti-mouse or anti-rabbit secondary antibodies (1:5000 dilution, Cell Signaling Inc.). All primary antibodies except Gapdh (Li-COR, Lincoln, Nebr.) were purchased from Cell Signaling Inc. Positive signals on the membrane blots were detected using the Amersham's enhanced chemiluminescence Western Blotting Prime Detection reagents (GE Healthcare Lifescience, Pittsburgh, Pa.). Images of these luminescence signals on the membrane blots were captured using the LI-COR Odyssey Fc Image system (Lincoln, Nebr.). The same membrane blot was stripped and re-blotted with another antibody as described in the GE WB ECL-prime-detection protocol (GE healthcare Lifescience, Pittsburgh, Pa.). Protein band densities in the Western blots were determined using the NIH ImageJ software and then normalized by Gapdh or Actb/ACTB level in each sample. Data are presented as mean±SEM of three samples per each group.

INSRβ/AS160 = assay: Western blot of INSRβ and AS160 phosphorylation in HepG2 cells; type: cell-based, human; details: 600 ppb, 30 and 60 minutes (FIG. 23)
Procedure: HepG2 cells were seeded on 6-well plates (7×10^5 cells/well) and cultured in 10% FBS EMEM media for 30 hr. Then these cells were washed twice with PBS to remove residual sera, and serum-starved in plain EMEM media overnight. These serum-starved HepG2 cells were treated without or with Compound #43 (600 ppb) in serum-free media for 0 minute (right before the treatment), 30 and 60 minutes.
as §1, with “above” for “above described”, “cells or differentiated C2C12” for “and AML-12”, “Cell lysates were collected using a cell scraper and transfer pipette, and then centrifuged at 12000×g for 30 min at 4° C. to remove the DNA pellet and obtain the protein extract.” left out
One hundred micrograms of skeletal muscle or liver tissue proteins, five micrograms of HepG2 cell protein extracts, or eight micrograms of differentiated C2C12 cell protein extracts were subjected to SDS-PAGE gel separation and then transferred to PVDF membranes, as described previously (Reddy et al. 2008 Science). […] Positive signals on the membrane blots were detected using the Amersham's enhanced chemiluminescence Western Blotting Prime Detection reagents (GE Healthcare Lifescience, Pittsburgh, Pa.). […]

## C[Se]C[C@H]1O[C@@H](n2cnc3c(N)ncnc32)C(OC(C)=O)C1OC(C)=O (stereo partly drawn) [Compound #43, Adenosine, 5′-Se-methyl-5′-selino-, 2′,3′-diacetate]
Lepr^db/db mice; 5.4 mg/kg single ip, 24 hr, 6-week-old mice, ad-libitum feeding (FIG. 7)
  decrease of blood glucose levels: about 20%
Lepr^db/db mice; 5.4 mg/kg single ip, feeding conditions
  duration of effectiveness in lowering glucose output: at least 24 hr
Lepr^db/db mice; single ip 0.0054, 0.054, 0.54, 5.4 mg/kg, fasting, 1-8 hr (FIG. 6)
  effect on blood glucose levels vs saline: significant decrease of blood glucose levels
Lepr^db/db mice; single ip injection, fasting
  duration of activity: at least 8 hours
  onset of action post-treatment: ≤ 1 h
Lepr^db/db mice; single ip injection, fasting conditions
  time of peak activity in reducing blood glucose levels: 2 to 5 h
PDK1/AKT/FOXO1; 600 ppb
  time of peak increase of pPDK1: 60-90 minutes
PDK1/AKT/FOXO1; 600 ppb, 30, 60, 90 minutes and 24 hr (FIG. 13C)
  phosphorylated AKT at T308: significant and transient increase of phosphorylated AKT at T308
PDK1/AKT/FOXO1; 600 ppb, 90 minutes and longer (FIG. 13E)
  phosphorylated FOXO1 at T24: significantly increased
PDK1/AKT/FOXO1; 600 ppb, all tested time points
  total AKT protein levels: not significantly altered
PDK1/AKT/FOXO1; 600 ppb, less than 24 hours
  total Foxo1 protein levels: no significant change in total FOXO1 protein levels
PDK1/AKT/FOXO1; 600 ppb, prolonged treatment 30 hr or 48 hr
  total Foxo1 protein levels: slight but statistically significant decrease of total FOXO1 proteins
PDK1/AKT/FOXO1; 600 ppb, serum-free, 30, 60, 90 minutes (FIG. 13B)
  pPDK1 protein level: significant and transient increase of pPDK1
INSRβ/AS160
  phosphorylated AS160: significant increase of phosphorylated AS160 at 5588
  phosphorylated INSRβ at Y1146: significant increase of phosphorylated INSRβ at Y1146
